Assay results taken from patent US6693123B2 (University of Pittsburgh, priority 1995, dated 2004).
Structures can show the parent of a compound that is named as a salt.

molecular target: T1, Rat brain protein farnesyltransferase (Rattus norvegicus, UniProt Q02293+Q04631); assay: In vitro inhibition of protein farnesyltransferase, Amersham scintillation proximity assay with biotin-K Ras B fragment; format: biochemical; conditions: Inhibition of farnesyltransferase; compound at 1 × 10^−5 M (Table 1)
T1 construct: The enzyme is purified according to Reiss, Y., et al., Cell, 62: 81-88 (1990), utilizing steps one through three; from tissue; host or cells: rat brain
Text: The ability of the compounds of the invention to inhibit protein farnesyltransferase or protein geranylgeranyltransferase can be measured according to the method of Moores, et al., J. Biol. Chem. 266: 14603 (1991) or the method of Vogt, et al., J. Biol. Chem. 270:660-664 (1995). In addition, procedures for determination of the inhibition of farnesylation of the oncogene protein Ras are described by Goldstein, et al., J. Biol. Chem., 266:15575-15578 (1991) and by Singh in U.S. Pat. No. 5,245,061.
In addition, in vitro inhibition of protein farnesyltransferase may be measured by the following procedure. Rat brain protein farnesyltransferase activity is measured using an Amersham Life Science commercial scintillation proximity assay kit and substituting a biotin-K Ras B fragment (biotin-[…]Ue-Met-CO2H), 0.1 mM final concentration, for the biotin-lamin substrate provided by Amersham. The enzyme is purified according to Reiss, Y., et al., Cell, 62: 81-88 (1990), utilizing steps one through three. […]
The % inhibition of protein farnesyltransferase was determined for representative compounds of the invention.

inhibition at 10 µM	SMILES
93%	CSCC[C@H](NC(=O)c1ccc(NC(=O)c2cccnc2)cc1-c1ccccc1)C(=O)O [Example 200, [4-(3-Pyridylcarbonylamino)-2-phenylbenzoyl]methionine Hydrochloride]

same assay, conditions: Inhibition of farnesyltransferase; compound at 1 × 10^−6 M (Table 2)

SMILES	% inhibition at 1 × 10^−6 M
CSCC[C@H](NC(=O)c1ccc(COc2cccnc2)cc1-c1ccc(C)cc1)C(=O)O [Example 206]	67%
COc1cccc(-c2cc(COc3cccnc3)ccc2C(=O)N[C@@H](CCSC)C(=O)O)c1 [Example 208]	98%

same assay, conditions: Inhibition of farnesyltransferase; compound at 1 × 10^−6 M (Table 2); read-out: % inhibition at 1 × 10^−6 M

inhibition at 1 µM	SMILES
55%	CS(=O)(=O)CC[C@H](NC(=O)c1ccc(C(O)C(O)c2cccnc2)cc1-c1ccccc1)C(=O)O (mixture of isomers) [Example 221, N-{4-[2-(Pyrid-3-yl)-1,2-dihydroxyethyl]-2-phenylbenzoyl]-2-amino-4-(methylsulfonyl)butanoic Acid]
88%	CSCC[C@@H](NC(=O)c1ccc(CNc2cccnc2)cc1-c1ccccc1)C(=O)O (stereo in doubt) [Example 189, [4-(3-Pyridylaminomethyl)-2-phenylbenzoyl]methionine]
22%	COC(=O)[C@H](CCS(C)(=O)=O)NC(=O)c1ccc(CNc2cccnc2)cc1-c1ccccc1 (stereo in doubt) [Example 238, N-[4-(3-Pyridylaminomethyl)-2-phenylbenzoyl]-2-amino-4-(methylsulfonyl)butanoic Acid Methyl Ester]
2%	COC(=O)[C@H](CCSC)N(C)C(=O)c1ccc(CNc2cccnc2)cc1-c1ccccc1 [Example 158, [4-(3-Pyridylaminomethylene)-2-phenylbenzoyl]-N-methylmetionine Methyl Ester]
84%	CSCC[C@@H](C(=O)O)N(C)C(=O)c1ccc(CNc2cccnc2)cc1-c1ccccc1 [Example 159, [4-(3-Pyridylaminomethyl)-2-phenylbenzoyl]-N-methylmethionine]
30%	CSCC[C@H](NC(=O)c1ccc(CNc2ccccn2)cc1-c1ccccc1)C(=O)O [Example 160, [4-(2-Pyridylaminomethyl)-2-phenylbenzoyl]methionine]
54%	CSCC[C@H](NC(=O)c1ccc(CNc2ccncc2)cc1-c1ccccc1)C(=O)O [Example 161, [4-(4-Pyridylaminomethyl)-2-phenylbenzoyl]methionine]
98%	CSCC[C@H](NC(=O)c1ccc(NCc2c[nH]cn2)cc1-c1ccccc1)C(=O)O [Example 167, [4-(1H-Imidazol-4-ylmethyl)amino-2-phenylbenzoyl]methionine Hydrochloride]
92%	CSCC[C@H](NC(=O)c1ccc(NC(=O)c2c[nH]cn2)cc1-c1ccccc1)C(=O)O [Example 168, [4-(1H-Imidazol-4-ylcarbonyl)amino-2-phenylbenzoyl]methionine Hydrochloride]
86%	CSCC[C@H](NC(=O)c1ccc(NC(=O)c2nccn2C)cc1-c1ccccc1)C(=O)O [Example 186, [4-(1H-1-Methylimidazol-2-ylcarboxyamino)-2-phenylbenzoyl]methionine]
68%	C[C@H](NC(=O)c1ccc(COc2cccnc2)cc1-c1ccccc1)C(=O)O [Example 187, [4-(3-Pyridyloxymethyl)-2-phenylbenzoyl]alanine]
4%	O=C(N[C@H]1CCOC1=O)c1ccc(NCc2cccnc2)cc1-c1ccccc1 [Example 190, [4-(3-Pyridylmethylamino)-2-phenylbenzoyl]homoserine Lactone]
95%	CSCC[C@H](NC(=O)c1ccc(NCc2cccnc2)cc1-c1ccccc1)C(=O)O [Example 192, [4-(3-Pyridylmethylamino)-2-phenylbenzoyl]methionine]
4%	CSCC[C@H](NC(=O)c1ccc(NCc2cccnc2)cc1-c1ccccc1)C(=O)OCCC(C)C [Example 193, [4-(3-Pyridylmethylamino)-2-phenylbenzoyl]methionine Isoamyl Ester]
43%	CSCC[C@H](NC(=O)c1ccc(NCc2cccnc2)cc1-c1ccccc1)C(N)=O [Example 196, [4-(3-Pyridylmethylamino)-2-phenylbenzoyl]methionineamide]
1%	CNC(=O)[C@H](CCSC)NC(=O)c1ccc(NCc2cccnc2)cc1-c1ccccc1 [Example 197, [4-(3-Pyridylmethylamino)-2-phenylbenzoyl]methioninemethylamide]
63%	COC(=O)[C@H](CCSC)NC(=O)c1ccc(NCc2cccnc2)cc1-c1ccccc1 [Example 201, [4-(3-Pyridylmethylamino)-2-phenylbenzoyl]methionine Methyl Ester]
76%	CS(=O)(=O)CC[C@H](NC(=O)c1ccc(NC(=O)c2cccnc2)cc1-c1ccccc1)C(=O)O [Example 203, [4-(3-Pyridylcarbonylamino)-2-phenylbenzoyl]-2-amino-4-(methylsulfonyl)butanoic Acid]
98%	CSCC[C@H](NC(=O)c1ccc(COc2cccnc2)cc1-c1ccccc1C)C(=O)O [Example 204, [4-(3-Pyridyloxymethyl)-2-(2-methylphenyl)benzoyl]methionine]
98%	CSCC[C@H](NC(=O)c1ccc(COc2cccnc2)cc1-c1cccc(C)c1)C(=O)O [Example 205, [4-(3-Pyridyloxymethyl)-2-(3-methylphenyl)benzoyl]methionine]
98%	COc1ccccc1-c1cc(COc2cccnc2)ccc1C(=O)N[C@@H](CCSC)C(=O)O [Example 207, [4-(3-Pyridyloxymethyl)-2-(2-methoxyphenyl)benzoyl]methionine]
74%	COc1ccc(-c2cc(COc3cccnc3)ccc2C(=O)N[C@@H](CCSC)C(=O)O)cc1 [Example 209, [4-(3-Pyridyloxymethyl)-2-(4-methoxyphenyl)benzoyl]methionine]
5%	COC(=O)[C@H](CCSC)NC(=O)c1ccc(/C=C/c2cccnc2)cc1-c1ccccc1 [Example 210, {4-[2-(Pyrid-3-yl)ethenyl]-2-phenylbenzoyl}methionine Methyl Ester]
98%	CSCC[C@H](NC(=O)c1ccc(C=Cc2cccnc2)cc1-c1ccccc1)C(=O)O [Example 211, {4-[2-(Pyrid-3-yl)ethenyl]-2-phenylbenzoyl}methionine Sodium Salt]
12%	COC(=O)[C@H](CCSC)NC(=O)c1ccc(CCc2cccnc2)cc1-c1ccccc1 [Example 212, {4-[2-(Pyrid-3-yl)ethyl]-2-phenylbenzoyl}methionine Methyl Ester]
98%	CSCC[C@H](NC(=O)c1ccc(CCc2cccnc2)cc1-c1ccccc1)C(=O)O [Example 213, {4-[2-(Pyrid-3-yl)ethyl]-2-phenylbenzoyl}methionine Sodium Salt]

same assay, conditions: Inhibition of farnesyltransferase; compound at 1 × 10^−8 M (Table 4); read-out: % inhibition at 1 × 10^−8 M

inhibition at 0.01 µM	SMILES
98%	CSCC[C@@H](NC(=O)c1ccc(CNc2cccnc2)cc1-c1ccccc1C)C(=O)O (stereo in doubt) [Example 400, [4-(3-Pyridylaminomethyl)-2-(2-methylphenyl)benzoyl]methionine]

same assay, conditions: read-out: % inhibition at 1 × 10^−6 M

SMILES	inhibition at 1 µM
O=C(N[C@@H](CCO)C(=O)O)c1ccc(NCc2cccnc2)cc1-c1ccccc1 [Example 191, Lithium 4-(3-Pyridylmethylamino)-2-phenylbenzoyl-L-homoserinate]	28%
CSCC[C@H](NC(=O)c1ccc(/C=C/c2cnccc2N(C)C)cc1-c1ccccc1)C(=O)O [Example 214, {4-[2-(4-Dimethylaminopyrid-3-yl)ethenyl]-2-phenylbenzoyl}methionine Sodium Salt]	97%
CSCC[C@H](NC(=O)c1ccc(/C=C/c2cncc(Br)c2)cc1-c1ccccc1)C(=O)O [Example 215, {4-[2-(5-Bromopyrid-3-yl)ethenyl]-2-phenylbenzoyl}methionine Sodium Salt]	82%
CSCC[C@H](NC(=O)c1ccc(/C=C/n2ccnc2)cc1-c1ccccc1)C(=O)O [Example 217, {4-[2-(1-H-Imidazole-1-yl)ethenyl]-2-phenylbenzoyl}methionine Sodium Salt]	99%

same assay, conditions: read-out: % inhibition at 1 × 10^−7 M

SMILES	inhibition at 0.1 µM
CSCC[C@H](NC(=O)c1ccc(/C=C/c2cnc3ccccc3c2)cc1-c1ccccc1C)C(=O)O (stereo in doubt) [Example 487, N-[4-(2-Quinolin-3-ylethen-1-yl)-2-(2-methylphenyl)benzoyl]methionine Lithium Salt]	81%
Cc1ccccc1-c1cc(CCc2cnc3ccccc3c2)ccc1C(=O)N[C@@H](CC[S+](C)[O-])C(=O)O (stereo in doubt) [Example 490, N-[4-(2-Quinolin-3-ylethyl)-2-(2-methylphenyl)benzoyl]-2-amino-4-methylsulfinylbutanoic Acid Lithium Salt]	70%
CSCC[C@H](NC(=O)c1ccc(/C=C/c2cncc3ccccc23)cc1-c1ccccc1C)C(=O)O (stereo in doubt) [Example 491, N-[4-(2-Isoquinolin-4-ylethen-1-yl)-2-(2-methylphenyl)benzoyl]methionine Lithium Salt]	94%
